Measured values published in ChEMBL document CHEMBL1201862, “PubChem BioAssay data set” (2004).
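Step 1: Grow cells in 96-well plates. Step 2: Expose to compound for 48 hours at 5 concentrations. Step 3: Interpolate endpoints linearly; if unreached, use highest concentration. GI50 marks 50% less growth.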 The source made the active and inactive calls. Rule as the data show it: active = GI50 up to about 1.1 µM and inactive = higher.

What was measured:
Assay in all cases: inhibition of tumour cell growth, NCI panel, 48 h
[1] = tested on: SF-268
[2] = tested on: IGROV-1
[3] = tested on: UACC-257
[4] = tested on: M14
[5] = tested on: MDA-MB-231
[6] = tested on: EKVX
[7] = tested on: SNB-75
[8] = tested on: MCF7
[9] = tested on: SNB-19
[10] = tested on: A498
[11] = tested on: COLO 205
[12] = tested on: HCC 2998
[13] = tested on: HCT-116
[14] = tested on: UACC-62
[15] = tested on: SK-MEL-2
[16] = tested on: SN12C
[17] = tested on: HCT-15
[18] = tested on: PC-3
[19] = tested on: T47D
[20] = tested on: NCI-H23

Compound | GI50 [1] | GI50 [2] | GI50 [3] | GI50 [4] | GI50 [5] | GI50 [6] | GI50 [7] | GI50 [8] | GI50 [9] | GI50 [10] | GI50 [11] | GI50 [12] | GI50 [13] | GI50 [14] | GI50 [15] | GI50 [16] | GI50 [17] | GI50 [18] | GI50 [19] | GI50 [20]
c1nnc(NCNc2nncs2)s1 | > 100 µM (inactive) | 49.1 µM (inactive) | 47.8 µM (inactive) | 43.1 µM (inactive) | 30.7 µM (inactive) | 23.3 µM (inactive) | 30 µM (inactive) | 38.5 µM (inactive) | > 100 µM (inactive) | 4.16 µM (inactive) | 56.1 µM (inactive) | 19.2 µM (inactive) | 33.7 µM (inactive) | 93.3 µM (inactive) | 68.9 µM (inactive) | 30.9 µM (inactive) | 40.2 µM | 57.1 µM (inactive) | 90.4 µM (inactive) | 47.9 µM (inactive)
N/C(=N/c1ccc(O)cc1)S(=O)(=O)O | > 100 µM (inactive) | > 100 µM (inactive) | > 100 µM (inactive) | > 100 µM (inactive) | > 100 µM (inactive) | > 100 µM (inactive) | > 100 µM (inactive) | > 100 µM (inactive) | > 100 µM (inactive) | > 100 µM (inactive) | > 100 µM (inactive) | > 100 µM (inactive) | > 100 µM (inactive) | > 100 µM (inactive) | > 100 µM (inactive) | > 100 µM (inactive) | > 100 µM | > 100 µM (inactive) | > 100 µM (inactive) | > 100 µM (inactive)
Cc1cc(NS(=O)(=O)c2ccc(NC(=O)c3ccc4nc5ccccc5c(Nc5ccc(S(=O)(=O)N=C(N)N)cc5)c4c3)cc2)no1 | 19 µM (inactive) | 16.2 µM (inactive) | 26.2 µM (inactive) | 15.1 µM (inactive) | 14.5 µM (inactive) | 16.4 µM (inactive) | 18.6 µM (inactive) | 19.8 µM (inactive) | 29 µM (inactive) | 19.5 µM (inactive) | 18.8 µM (inactive) | 16 µM (inactive) | 17.3 µM (inactive) | 21.7 µM (inactive) | 16.5 µM (inactive) | 17 µM (inactive) | 15.4 µM | 16.9 µM (inactive) | 14.6 µM (inactive) | 18.8 µM (inactive)
COc1cccc2ccc3c(c12)C(=O)OC31CCc2c(C)cccc21 (stereo not given) | 30.3 µM (inactive) | 34.5 µM (inactive) | 23.4 µM (inactive) | 19.9 µM (inactive) | 36.1 µM (inactive) | 27.1 µM (inactive) | 13.4 µM (inactive) | 0.018 µM (active) | 11.4 µM (inactive) | 7.41 µM (inactive) | 22.6 µM (inactive) | 26.7 µM (inactive) | 8.49 µM (inactive) | 11.6 µM (inactive) | 32.1 µM (inactive) | 16.5 µM (inactive) | 10.3 µM | 15.6 µM (inactive) | 32.4 µM (inactive) | 8.51 µM (inactive)
Cc1cc(N(CCC#N)CCC#N)ccc1/C=N/NC(=O)c1ccccc1 | > 48.8 µM (inactive) | 12.9 µM (inactive) | > 48.9 µM (inactive) | 40.6 µM (inactive) | 15 µM (inactive) | 48.9 µM (inactive) | 28.9 µM (inactive) | 7.82 µM (inactive) | > 59.2 µM (inactive) | 10.1 µM (inactive) | 15.7 µM (inactive) | 9.2 µM (inactive) | 7.57 µM (inactive) | 10.4 µM (inactive) | 52.8 µM (inactive) | 28.5 µM (inactive) | 5.28 µM | 21.8 µM (inactive) | 24.8 µM (inactive) | 25.2 µM (inactive)
COc1ccc2[nH]c3c(c2c1)COc1ccccc1C3=O | > 100 µM (inactive) | > 100 µM (inactive) | > 100 µM (inactive) | > 100 µM (inactive) | > 100 µM (inactive) | > 100 µM (inactive) | 18.6 µM (inactive) | > 100 µM (inactive) | > 100 µM (inactive) | > 100 µM (inactive) | > 100 µM (inactive) | > 100 µM (inactive) | > 100 µM (inactive) | > 100 µM (inactive) | 34.8 µM (inactive) | > 100 µM (inactive) | > 100 µM | > 100 µM (inactive) | 44.4 µM (inactive) | > 100 µM (inactive)
N#Cc1c2c([nH]c(=O)c1C#N)CCCC2 | > 100 µM (inactive) | > 100 µM (inactive) | > 100 µM (inactive) | > 100 µM (inactive) | > 100 µM (inactive) | > 100 µM (inactive) | 82.8 µM (inactive) | > 100 µM (inactive) | > 100 µM (inactive) | > 100 µM (inactive) | > 100 µM (inactive) | > 100 µM (inactive) | > 100 µM (inactive) | > 100 µM (inactive) | > 100 µM (inactive) | > 100 µM (inactive) | > 100 µM | > 100 µM (inactive) | > 100 µM (inactive) | > 100 µM (inactive)
CCOC(=O)c1cc(Br)c(-c2cc(C)co2)[nH]1 | > 100 µM (inactive) | 66.1 µM (inactive) | > 100 µM (inactive) | > 100 µM (inactive) | > 100 µM (inactive) | 67 µM (inactive) | > 100 µM (inactive) | > 100 µM (inactive) | > 100 µM (inactive) | > 100 µM (inactive) | > 100 µM (inactive) | > 100 µM (inactive) | > 100 µM (inactive) | > 100 µM (inactive) | > 100 µM (inactive) | > 100 µM (inactive) | > 100 µM | > 100 µM (inactive) | > 100 µM (inactive) | > 100 µM (inactive)
N#Cc1ccc(/C=N/NC(=O)CSCC(=O)N/N=C/c2ccc(C#N)cc2)cc1 | > 100 µM (inactive) | > 100 µM (inactive) | > 100 µM (inactive) | > 100 µM (inactive) | 29.1 µM (inactive) | > 100 µM (inactive) | 26.3 µM (inactive) | > 100 µM (inactive) | > 100 µM (inactive) | > 100 µM (inactive) | > 100 µM (inactive) | > 100 µM (inactive) | > 100 µM (inactive) | > 100 µM (inactive) | > 100 µM (inactive) | > 100 µM (inactive) | > 100 µM | > 100 µM (inactive) | > 100 µM (inactive) | > 100 µM (inactive)
C/C(CC(O)(C(F)(F)F)C(F)(F)F)=N\N | > 10 µM (inactive) | > 10 µM (inactive) | > 10 µM (inactive) | > 10 µM (inactive) | > 10 µM (inactive) | > 10 µM (inactive) | > 10 µM (inactive) | > 10 µM (inactive) | > 10 µM (inactive) | > 10 µM (inactive) | > 10 µM (inactive) | > 10 µM (inactive) | > 10 µM (inactive) | > 10 µM (inactive) | > 10 µM (inactive) | > 10 µM (inactive) | > 10 µM | > 10 µM (inactive) | > 10 µM (inactive) | > 10 µM (inactive)
O=C1c2cccc3cc([N+](=O)[O-])cc(c23)C(=O)N1Nc1ccc([N+](=O)[O-])cc1[N+](=O)[O-] | 21.7 µM (inactive) | 12.4 µM (inactive) | 13.3 µM (inactive) | 24.7 µM (inactive) | 16.8 µM (inactive) | 24.4 µM (inactive) | 18.2 µM (inactive) | 14.5 µM (inactive) | 18.2 µM (inactive) | 18.4 µM (inactive) | 11.5 µM (inactive) | 14 µM (inactive) | 10.9 µM (inactive) | 13.6 µM (inactive) | > 100 µM (inactive) | 22.8 µM (inactive) | 14.5 µM | 17.9 µM (inactive) | 16.4 µM (inactive) | 17.9 µM (inactive)
Cc1ccc(NC(=O)CC(=O)N2N=C(N(C)c3ccccc3)CC2c2ccccc2)cc1 (stereo not given) | > 100 µM (inactive) | > 100 µM (inactive) | > 100 µM (inactive) | > 100 µM (inactive) | > 100 µM (inactive) | > 100 µM (inactive) | 25.4 µM (inactive) | > 100 µM (inactive) | > 100 µM (inactive) | > 100 µM (inactive) | > 100 µM (inactive) | > 100 µM (inactive) | > 100 µM (inactive) | > 100 µM (inactive) | > 100 µM (inactive) | > 100 µM (inactive) | > 100 µM | > 100 µM (inactive) | > 100 µM (inactive) | > 100 µM (inactive)
C=C1C[C@@H]2O[C@H]3[C@H]4[C@@H](C[C@@H](C)[C@@H](OC(C)=O)[C@H]42)[C@@H](C)CO[C@@]3(C)[C@H](OC(=O)CCCCCCC)C[C@H]1O | 16.1 µM (inactive) | 17.5 µM (inactive) | 16.7 µM (inactive) | 20 µM (inactive) | 13.8 µM (inactive) | 13.9 µM (inactive) | 16.7 µM (inactive) | 21.4 µM (inactive) | 16.7 µM (inactive) | 16.2 µM (inactive) | 16.4 µM (inactive) | 16.9 µM (inactive) | 16.5 µM (inactive) | 16.3 µM (inactive) | 20.3 µM (inactive) | 17.3 µM (inactive) | 15.8 µM | 15.3 µM (inactive) | 11.1 µM (inactive) | 19.8 µM (inactive)
CCN(CC)C(=S)SS(=O)(=O)c1ccccc1C(=O)O | 98.2 µM (inactive) | > 100 µM (inactive) | > 100 µM (inactive) | > 96.4 µM (inactive) | > 100 µM (inactive) | > 100 µM (inactive) | > 89.1 µM (inactive) | 1.03 µM (active) | > 94.2 µM (inactive) | > 38 µM (inactive) | > 100 µM (inactive) | > 100 µM (inactive) | > 96.6 µM (inactive) | 66.4 µM (inactive) | > 100 µM (inactive) | > 94.8 µM (inactive) | > 100 µM | > 100 µM (inactive) | > 36 µM (inactive) | > 100 µM (inactive)
